Laboratory results taken from paper PMC4077824, “Conserved Prosegment Residues Stabilize a Late-Stage Folding Transition State of Pepsin Independently of Ground States” (PLoS ONE, 2014).
“And” between values parts separate entries of the source, which are not always exact repeats. Identical values can stand only once. Where no end group is shown, it is not given here.

Experiments:
[1] = test system: pepsin (PS-Rp, PS-TS, PS-Np complexes); assay: Φ-value analysis from PS-catalyzed folding and binding constants; parameters: species or system porcine; details: for Φ: ratio ΔΔG^‡/ΔΔGPS(Np-Rp); for Φ / ΔΔGPS(Np-Rp) (change in equilibrium stability of PS-Np relative to PS-Rp): ± SD by propagation of errors; for ΔΔGPS(Np-Rp) (change in equilibrium stability of PS-Np relative to PS-Rp): ΔΔGPS-Np minus ΔΔGPS-Rp; for effect on PS-TS stability (in words): ΔΔGPS-TS = ΔΔG^‡ + ΔΔGPS-Rp
Description: Calculation of Φ-values from PS-catalyzed folding and binding constants
The change in stability of the folding transition state upon mutation was calculated using [drawing 3] (3) where k f, wt and k f, mut are the PS-catalyzed folding rate constants of the wild-type and mutant PS peptides. The change in equilibrium stability of PS-Np relative to PS-Rp upon mutation of the PS (ΔΔGPS(Np-Rp)) was determined as the difference between the changes in binding energies, using [drawing 4] (4) and [drawing 5] (5)
Here, ΔΔGbind refers to either ΔΔGPS-Rp, determined from K d values, or ΔΔGPS-Np, determined from K i values. The Φ-value for each mutant corresponds to eq 3 divided by eq 5. Additional details are included in the supporting information section (Text S1).
As outlined below, ∆Gbind values are used to calculate ∆∆GPS(Np-Rp), which is the change in the equilibrium free energy difference between PS-Np and PS-Rp upon mutation of the PS (for a diagram of the folding reaction, see Fig S1)
ΔΔGbind can refer to either ∆∆G^PS-Np(wt-mut) or ∆∆G^PS-Rp(wt-mut). Also, we can write ∆Gbind in terms of its components
where ∆GPS, ∆Gpepsin and ∆Gsolvent refer to the change in free energy of the PS, pepsin and the solvent upon PS binding to pepsin, respectively. Combining equations S1 and S2 gives
The contribution of each component to ∆∆Gbind will depend on the particular mutation (e.g., nature of substitution, location within folded structure, solvent accessibility). This is the general case for protein engineering analysis, in which the effects of mutations on changes in equilibrium and activation energies are the result of many individual interaction energy terms, including solvent terms, as previously explained in detail [Fersht AR, Matouschek A, Serrano L (1992) The folding of an enzyme I. Theory of protein engineering analysis of stability and pathway of protein folding. J Mol Biol 224: 771‒782]. Most importantly, there is no requirement to separate ΔΔGbind into its components in order to proceed with analysis as we are interested in the overall change in equilibrium stability of the PS-pepsin complex (∆∆GPS(Np-Rp))
This bimolecular approach to Φ-value analysis of protein folding is qualitatively identical to Φ-value analysis as it was originally applied to the study of enzyme catalysis. As outlined previously [Fersht AR], changes in the free energy of enzyme (E) binding to substrate (S) or product (P) are used to determine the change in free energy difference between E-P and E-S upon mutation, ∆∆G^EP-ES(wt-mut), where
As these are at the scale of global energy terms, equations S4 and S5 are equivalent and PS-catalyzed folding can be treated similarly as enzyme catalysis, in which the PS is the foldase and the denatured and natively folded protein are the substrate and product, respectively. However, protein folding reactions are more complicated to interpret at the level of individual interaction energy terms, which are more numerous [Fersht AR].
Changes in the binding energies between PS-Rp and PS-Np upon PS mutation can then be used to determine Φ-values with the following considerations:
1. Free PS is unstructured (see Fig S6), so Ala mutations are expected to have a negligible effect on the stability and conformation of free PS.
2. Changes in binding and folding upon mutation can be localized to the loss of interactions in the immediate vicinity of the truncation mutation (i.e., larger residue mutated to Ala), and not due to gross conformational changes of the PS or changes in the binding/folding mechanism (consider as strong evidence that all of the mutant PS’s readily catalyze folding to the native, active form).
3. Changes in PS-Rp and PS-Np binding energies upon mutation (∆∆G^PS-Np(wt-mut) and ∆∆G^PS-Rp(wt-mut)) are measured directly, while the change in the PS-TS binding energy (∆∆G^PS-TS(wt-mut)) is the sum of ∆∆G^PS-Rp(wt-mut) and ∆∆G^‡(wt-mut).
4. Φ-values are calculated using […]

refolded pepsin (Rp) [2] = details: 1H-15N TROSY NMR, absence of 100 mM NaCl; ref [51]; cited from earlier work
Description: Coarse-grain simulations have been used to understand the nature of non-native interactions in small, single-domain proteins lacking stable folding intermediates, [48], [49]. […] It would be challenging, but not impossible, to use similar coarse-grain approaches to model the folding of pepsinogen (370 residues). Using simulation to gain insigh ... || PS binding to Rp was measured in buffer without added 100 mM NaCl in order to obtain more accurate measurements of K d, owing to a larger change in signal in the absence of salt. Additionally, without added 100 mM NaCl it was possible to isolate the PS-Rp binding step from the catalyzed folding step thereby improving the determination of K d. […] However, ^1H-^15N TROSY NMR experiments indicated tha ...

[3] = test system: pepsin (PS-Rp, PS-TS, PS-Np complexes); details: ref [7]; cited from earlier work
Source text: It seems likely that the PS has achieved this higher affinity for the TS via a concerted optimization of side-chain packing, hydrogen bonding and electrostatics, as evidenced by polar, hydrophobic and charged groups selectively stabilizing the TS ( Fig 3A ). Furthermore, this concerted optimization likely involves both non-native and strengthened native contacts, given the range of interactions involved. In the native fold [ ...

refolded pepsin (Rp) [4] = target: T1, refolded pepsin (Rp) (Sus scrofa, UniProt P00791); assay: PS-catalyzed folding of Rp to Np (recovery of Np activity); format: biochemical, porcine; details: PS with Rp, without 100 mM NaCl, timescale of 0–2 hours; data not shown, and [7]
T1 construct: Only the R13 and K36 side-chains of the PS form hydrogen bonds with the mature pepsin domain; purchased Sigma (St. Louis, MO, USA)
T1 sequence (P00791 60-385): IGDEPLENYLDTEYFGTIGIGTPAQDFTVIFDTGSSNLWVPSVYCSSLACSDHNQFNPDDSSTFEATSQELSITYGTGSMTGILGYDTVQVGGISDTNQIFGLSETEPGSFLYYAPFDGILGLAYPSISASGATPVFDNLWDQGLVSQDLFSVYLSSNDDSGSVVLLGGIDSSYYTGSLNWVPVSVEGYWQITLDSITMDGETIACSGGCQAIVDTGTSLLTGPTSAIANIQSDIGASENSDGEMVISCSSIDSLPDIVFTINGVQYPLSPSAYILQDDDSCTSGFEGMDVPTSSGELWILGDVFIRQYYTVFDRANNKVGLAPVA

refolded pepsin (Rp) [5] = target: T1, refolded pepsin (Rp); details: ref [7]; cited from earlier work
Source text: (§1) Figure 1 Zymogen-derived proteins deviate from common trends in protein folding. (A) Comparison of the non- and PS-catalyzed folding of αLP [8], SGPB [5] and pepsin [7]. (B) Relation between topology and folding rate for a number of two- and three-state folding proteins (circles, data taken from, [21], [22]). The folding rate of αLP (squares), SGPB (triangles) and pepsin (stars) is accelerated to the value (hollow points) expected based on the topology, only when the PS is included. (C) Reaction scheme of pepsin PS-catalyzed folding. […] It seems likely that the PS has achieved this higher affinity for the TS via a concerted optimization of side-chain packing, hydrogen bonding and electrostatics, as evidenced by polar, hydrophobic and charged groups selectively stabilizing the TS ( Fig 3A ). Furthermore, this concerted optimization likely involves both non-native and strengthened native contacts, given the range of interactions involved. In the native fold [ ...

native pepsin (Np) = target: T2, native pepsin (Np) (Sus scrofa, UniProt P00791); details: ref [7]; cited from earlier work
T2 construct: Only the R13 and K36 side-chains of the PS form hydrogen bonds with the mature pepsin domain; purchased Sigma (St. Louis, MO, USA)
T2 sequence (P00791 60-385): as above
Source text: as §1

LVKAPLVRKKSLRQNLIKNGKLKDFLKTHKHNPASKYFPEAAAL [V4A]
Φ [1]: −1.0±0.3
ΔΔGPS(Np-Rp) (change in equilibrium stability of PS-Np relative to PS-Rp) [1]: -0.93 ± 0.18 kcal/mol
effect on PS-TS stability (in words) [1]: destabilizing to the TS

LVKVPLVRKKSLRQNLAKNGKLKDFLKTHKHNPASKYFPEAAAL [I17A]
Φ [1]: 0 and 0.0±0.1
ΔΔGPS(Np-Rp) (change in equilibrium stability of PS-Np relative to PS-Rp) [1]: 1.26 ± 0.28 kcal/mol
effect on PS-TS stability (in words) [1]: negligible effect on PS-Rp and PS-TS stability

LVKVPLVRKKSLRQNLIKNGKLKDFLKTHKHNPASKYFPEAAAL [WT]
folding of PS-Rp to native complex without 100 mM NaCl (refolded pepsin (Rp) [2]): does fold to the native complex
affinity for folding TS [3]: picomolar affinity
generation of protease activity without added NaCl (refolded pepsin (Rp) [4]): no generation of protease activity was observed
affinity for Rp (refolded pepsin (Rp) [5]): micromolar
affinity for Np (native pepsin (Np)): nano-
